Results taken from US8147852B2, “Modified azole compounds as antifungal and antibacterial agents” (Barrier Therapeutics, Inc., priority 2006, dated 2012).
Values after ≈ are worked out from the molar mass of the structure shown.

Tests used:
Format in all cases: cell-based
C. albicans = assay: MIC100 against C. albicans strains; conditions: Candida albicans, 48 h
C. glabrata = assay: MIC100 against C. glabrata strains; conditions: Nakaseomyces glabratus, 48 h
C. tropicalis = assay: MIC100 against C. tropicalis; conditions: Candida tropicalis; C. tropicalis 19596(w.t), wild type; 48 h

MIC (C. albicans; C. albicans 19457(w.t), wild type): 4.17 µM (≈ 1.74 µg/mL)
MIC (C. albicans; C. albicans 19507(r), resistant): 4.17 µM (≈ 1.74 µg/mL)
MIC (C. albicans; C. albicans 20126(r), resistant): 17 µM (≈ 7.07 µg/mL)
MIC (C. glabrata; C. glabrata 05/1032(r), resistant): 8.3 µM (≈ 3.45 µg/mL)
MIC (C. glabrata; C. glabrata 05/1414(r), resistant): 17 µM (≈ 7.07 µg/mL)
MIC (C. glabrata; C. glabrata 19371(w.t.), wild type): 4.17 µM (≈ 1.74 µg/mL)
MIC (C. tropicalis): 8.3 µM (≈ 3.45 µg/mL)
Compound: Clc1ccc(COC(Cn2ccnc2)c2ccc(Cl)cc2Cl)c(Cl)c1 (stereo not shown) [miconazole]
